Common to all, as to assay type: in vivo
The subject of assay [1] is barnyardgrass (Echinochloa crus-galli). Kind of assay: Test A postemergence. The note with it: Echinochloa crus-galli, post-emergence, 240 h, 125 g ai/ha, postemergence; visual injury after approximately 10 d; 0 to 100 scale (0 no effect, 100 complete control); read-out: Plant response rating, Barnyardgrass. Put shortly:
(§1)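 Visual injury scores from 0, no effect, to 100, complete control, were assigned versus untreated controls roughly 10 d after treatment in the greenhouse. Test chemicals, formulated with surfactant in a non-phytotoxic solvent, were applied to planted seeds as a preemergence soil spray or postemergence to one- to two-leaf plants 2 to 10 cm tall, in loam–sand soil.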

The subject of assay [2] is ragweed (common ragweed, Ambrosia elatior). Kind of assay: Test A postemergence. The note with it: Ambrosia artemisiifolia, post-emergence, 240 h, 125 g ai/ha, postemergence; visual injury after approximately 10 d; 0 to 100 scale (0 no effect, 100 complete control); read-out: Plant response rating, Ragweed. Put shortly: as §1
The subject of assay [3] is Kochia (Kochia scoparia). Kind of assay: Test A postemergence. The note with it: Bassia scoparia, post-emergence, 240 h, 125 g ai/ha, postemergence; visual injury after approximately 10 d; 0 to 100 scale (0 no effect, 100 complete control); read-out: Plant response rating, Kochia. Put shortly: as §1
Assay [4] has as its system pigweed (Amaranthus retroflexus). Kind of assay: Test A postemergence. The note with it: Amaranthus retroflexus, post-emergence, 240 h, 125 g ai/ha, postemergence; visual injury after approximately 10 d; 0 to 100 scale (0 no effect, 100 complete control); read-out: Plant response rating, Pigweed. In outline:
as §1

In assay [5] the test system is wheat (Triticum aestivum). Briefly: Test A postemergence. The conditions noted are these: Triticum aestivum, post-emergence, 240 h, 125 g ai/ha, postemergence; visual injury after approximately 10 d; 0 to 100 scale (0 no effect, 100 complete control); read-out: Plant response rating, Wheat. Put shortly:
as §1

For assay [6], the system named is ryegrass, Italian (Italian ryegrass, Lolium multiflorum). Briefly: Test A postemergence. The note with it: Lolium multiflorum, post-emergence, 240 h, 125 g ai/ha, postemergence; visual injury after approximately 10 d; 0 to 100 scale (0 no effect, 100 complete control); read-out: Plant response rating, Ryegrass, Italian. Put shortly:
as §1

Assay [7] relates to giant foxtail (Setaria faberii). Briefly: Test A postemergence. The note with it: Setaria faberi, post-emergence, 240 h, 125 g ai/ha, postemergence; visual injury after approximately 10 d; 0 to 100 scale (0 no effect, 100 complete control); read-out: Plant response rating, Foxtail, Giant. In outline:
as §1

For assay [8], the system named is Galium (catchweed bedstraw, Galium aparine). Kind of assay: Test A postemergence. The conditions noted are these: Galium, post-emergence, 240 h, 125 g ai/ha, postemergence; visual injury after approximately 10 d; 0 to 100 scale (0 no effect, 100 complete control); read-out: Plant response rating, Galium. Put shortly:
as §1

The test system of the next assay is corn (Zea mays). Kind of assay: Test A postemergence. The conditions noted are these: Zea mays, post-emergence, 240 h, 125 g ai/ha, postemergence; visual injury after approximately 10 d; 0 to 100 scale (0 no effect, 100 complete control). In outline:
as §1

Assay [9] relates to barnyardgrass (Echinochloa crus-galli). Kind of assay: Test A preemergence. The conditions noted are these: Echinochloa crus-galli, pre-emergence, 240 h, preemergence, read-out: Plant response rating, Barnyardgrass; for pest or weed control at 125 g/ha: 125 g ai/ha, visual rating after approx. 10 d, 0 to 100 scale where 0 is no effect and 100 is complete control; for pest or weed control at 500 g/ha: 500 g ai/ha, 0 to 100 scale, 0 = no effect, 100 = complete control. Put shortly: as §1

The test system of assay [10] is ragweed (common ragweed, Ambrosia elatior). Kind of assay: Test A preemergence. The note with it: Ambrosia artemisiifolia, pre-emergence, 240 h, preemergence, read-out: Plant response rating, Ragweed; for pest or weed control at 125 g/ha: 125 g ai/ha, visual rating after approx. 10 d, 0 to 100 scale where 0 is no effect and 100 is complete control; for pest or weed control at 500 g/ha: 500 g ai/ha, 0 to 100 scale, 0 = no effect, 100 = complete control. Put shortly:
as §1

The test system of assay [11] is Kochia (Kochia scoparia). Briefly: Test A preemergence. The note with it: Bassia scoparia, pre-emergence, 240 h, preemergence, read-out: Plant response rating, Kochia; for pest or weed control at 125 g/ha: 125 g ai/ha, visual rating after approx. 10 d, 0 to 100 scale where 0 is no effect and 100 is complete control; for pest or weed control at 500 g/ha: 500 g ai/ha, 0 to 100 scale, 0 = no effect, 100 = complete control. Put shortly: as §1

Assay [12] relates to pigweed (Amaranthus retroflexus). Kind of assay: Test A preemergence. The conditions noted are these: Amaranthus retroflexus, pre-emergence, 240 h, preemergence, read-out: Plant response rating, Pigweed; for pest or weed control at 125 g/ha: 125 g ai/ha, visual rating after approx. 10 d, 0 to 100 scale where 0 is no effect and 100 is complete control; for pest or weed control at 500 g/ha: 500 g ai/ha, 0 to 100 scale, 0 = no effect, 100 = complete control.

Assay [13] concerns ryegrass, Italian (Italian ryegrass, Lolium multiflorum). Briefly: Test A preemergence. The note with it: Lolium multiflorum, pre-emergence, 240 h, preemergence, read-out: Plant response rating, Ryegrass, Italian; for pest or weed control at 125 g/ha: 125 g ai/ha, visual rating after approx. 10 d, 0 to 100 scale where 0 is no effect and 100 is complete control; for pest or weed control at 500 g/ha: 500 g ai/ha, 0 to 100 scale, 0 = no effect, 100 = complete control. Put shortly:
as §1

In assay [14] the test system is giant foxtail (Setaria faberii). Kind of assay: Test A preemergence. The conditions noted are these: Setaria faberi, pre-emergence, 240 h, preemergence, read-out: Plant response rating, Foxtail, Giant; for pest or weed control at 125 g/ha: 125 g ai/ha, visual rating after approx. 10 d, 0 to 100 scale where 0 is no effect and 100 is complete control; for pest or weed control at 500 g/ha: 500 g ai/ha, 0 to 100 scale, 0 = no effect, 100 = complete control. In outline:
as §1

Regarding `CS(=O)(=O)c1ccccc1NC(=O)[C@H]1C(=O)NC[C@@H]1c1cccc2c1OC(F)(F)O2` [Compound 753], the pest or weed control at 125 g/ha in assay [1] was found to be 50%; in [2] it was 0%; in the assay with Kochia (Kochia scoparia) [3], 0%; in [4], 0%; in assay [6], 0%; in [7] it was 0%. Moreover, the pest or weed control at 125 g/ha amounted to 0% in assay [8]; 70% in assay [9]; 0% in [10]; 20% in the assay on Kochia (Kochia scoparia) [11]; 0% in [12]; 0% in assay [13]. In assay [14], the pest or weed control at 125 g/ha came out at 70%. Moreover, the plant injury at 125 g/ha in assay [5] amounted to 0%. In the assay with corn (Zea mays), the Corn plant response rating (crop injury, 0 = no effect, 100 = complete kill) at 125 g/ha came to 0%. The pest or weed control at 500 g/ha in assay [9] was found to be 100%; in [10] it was 0%; in the assay with Kochia (Kochia scoparia) [11], 20%; in assay [12], 0%; in assay [13] it was 20%; in [14], 90%.
For the molecule `Cc1cc([C@H]2CN(C)C(=O)[C@@H]2C(=O)Nc2ccc(F)c(F)c2F)ccc1F` [Compound 719], the pest or weed control at 125 g/ha in [1] is 90%; in assay [2], 30%; in the assay on Kochia (Kochia scoparia) [3], 60%; in assay [4], 50%; in [6] it was 50%; in [7], 90%. Moreover, the pest or weed control at 125 g/ha worked out at 60% in assay [8]; 90% in assay [9]; 20% in assay [10]; 70% in the assay with Kochia (Kochia scoparia) [11]; 50% in assay [12]; 70% in assay [13]. Moreover, the pest or weed control at 125 g/ha in assay [14] was 90%. Further, the plant injury at 125 g/ha in assay [5] stood at 80%. The Corn plant response rating (crop injury, 0 = no effect, 100 = complete kill) at 125 g/ha in the assay with corn (Zea mays) came out at 90%. Besides, the pest or weed control at 500 g/ha is 90% in assay [9]; 70% in assay [10]; 80% in the assay on Kochia (Kochia scoparia) [11]; 90% in [12]; 90% in assay [13]; 90% in assay [14].

The record behind these values is patent US12077503B2, “Substituted cyclic amides and their use as herbicides” (FMC CORPORATION, priority 2015, dated 2024).
